Values of other authors as cited in publication PMC12844998, “Bridging the Knowledge Gap in Harmaline’s Pharmacological Properties: A Focus on Thermodynamics and Kinetics” (Pharmaceutics, 2025).

Settings: source not stated; cited from earlier work

For `CCCCCC` [Hex, n-Hexane], the logP is given as 3.5.
